Common to all, as to experiment: Anti-proliferative assay, cell-titre luminescent reagent, 72 h (GVK-BIO)
Holding throughout (format): cell-based

The subject of one assay is SK-Mel-28 melanoma cells. The following applies: Homo sapiens, SK-MEL-28, 72 h, 30, 3, 0.3 and 0.03 μM, linear regression (Tables 2-4). The procedure: (§1) The ability of compounds 4001, 4002, 4008, 4010, 4011, 4013-4015, 4018, 4026, 4045-4113 and 4115-4127 to inhibit the proliferation of cancer cells representative of neuroblastoma, melanoma, prostate cancer, colorectal cancer, non-small cell lung carcinoma, and triple negative breast cancer was assessed. These studies were conducted by contract research (GVK-BIO). Briefly, a pre-determined number of cells as calculated from cell growth assays for each of the cell lines employed were seeded into their respective culture medium (using ATCC culture parameters—http://www.atcc.org) and cultured for 24 h at 37° C. and 5% CO2 in 96-well culture plates. Once attached, each cell line was then exposed to various concentrations of each respective analogue (30, 3, 0.3 and 0.03 μM for compounds in Tables 2, 3 and 4; 30, 10, 3, 1, 0.3 and 0.1 μM for compounds in Table 5), cultured for a further 72 h and exposed to cell-titre luminescent reagent (100 μL/well) for a further 30 min). Luminescence was captured using an EnVision multilabel reader and the data for each analogue concentration compared against no treatment control. For compounds in Tables 2-4, semi-log plots of Percent of Control versus concentration were prepared and IC50 determined using linear regression analysis. For compounds in Table 5, cell viability was normalized to control (vehicle alone) and dose-response curves, and half maximal effective concentration (EC50) values were determined using Graph Pad Prism 6 (nonlinear regression sigmoidal dose-response variable slope).

Assay [1] has as its system DU145 prostate cancer cells. The following applies: Homo sapiens, DU-145, 72 h, 30, 3, 0.3 and 0.03 μM, linear regression (Tables 2-4). As to the method:
as §1

Assay [2] relates to MDA-MB-231 triple negative breast cancer cells. The following applies: Homo sapiens, MDA-MB-231, 72 h, 30, 3, 0.3 and 0.03 μM, linear regression (Tables 2-4). As to the method: as §1
Assay [3] deals with CaCo2 colorectal cancer cells. The following applies: Homo sapiens, Caco-2, 72 h, 30, 3, 0.3 and 0.03 μM, linear regression (Tables 2-4). The procedure: as §1
The test system of assay [4] is SK-N-SH neuroblastoma cells. The following applies: Homo sapiens, SK-N-SH, 30, 3, 0.3 and 0.03 μM, linear regression (Tables 2-4). As to the method:
as §1

For assay [5], the system named is A549 non-small cell lung carcinoma cells. The following applies: Homo sapiens, A549, 72 h, 30, 3, 0.3 and 0.03 μM, linear regression (Tables 2-4), read-out: IC50/μM Lung (NSLC) A549. As to the method: as §1
For assay [6], the system named is PC3 prostate cancer cells. The following applies: 30, 3, 0.3 and 0.03 μM, linear regression (Tables 2-4). As to the method: as §1

Some results are limits rather than exact numbers.

Take `Cc1c(C)n(CCCN(C)C)c2ccc(C(=O)N3CCN(CCc4ccccc4)CC3)cc12` [Compound 4018, (1-(3-(dimethylamino)propyl)-2,3-dimethyl-1H-indol-5-yl)(4-phenethylpiperazin-1-yl)methanone]: the IC50 in the assay with SK-Mel-28 melanoma cells is 67.3 µM; in assay [1] it was more than 30 µM; in assay [2], more than 30 µM; in assay [3], more than 30 µM; in assay [4] it was more than 30 µM; in assay [5] it was more than 30 µM. For the same compound, the IC50 in assay [6] was more than 30 µM.

As for `CN(C)CCCn1ccc2cc(Nc3ccc(C(=O)Nc4ccccc4)cc3)ccc21` [Compound 4026, 4-((1-(3-(dimethylamino)propyl)-1H-indol-5-yl)amino)-N-phenylbenzamide], the IC50 with SK-Mel-28 melanoma cells stood at 5.9 µM; in assay [1] it was 5 µM; in assay [2], 3.5 µM; in assay [3] it was 15.4 µM; in assay [4], 3.7 µM; in assay [5] it was 3.8 µM. Besides, the IC50 in assay [6] turned out to be 6.1 µM.

With `CN(C)CCCn1ccc2cc(Cc3cccc(C(=O)Nc4ccc(F)cc4)c3)ccc21` [Compound 4045, 3-((1-(3-(dimethylamino)propyl)-1H-indol-5-yl)methyl)-N-(4-fluorophenyl)benzamide], the IC50 in the assay with SK-Mel-28 melanoma cells was found to be 3.7 µM; in assay [1] it was 5.5 µM; in assay [2] it was 2.6 µM; in assay [3] it was 5.2 µM; in assay [4], 3.8 µM; in assay [5], 3.7 µM. The compound also came in with an IC50 in assay [6] of 5.7 µM.

For `COc1ccc(NC(=O)c2cccc(Cc3ccc4c(ccn4CCCN(C)C)c3)c2)cc1` [Compound 4046, 3-((1-(3-(dimethylamino)propyl)-1H-indol-5-yl)methyl)-N-(4-methoxyphenyl)benzamide], the IC50 in the assay on SK-Mel-28 melanoma cells stood at 1.9 µM; in assay [1] it was 2.6 µM; in assay [2], 1.9 µM; in assay [3], 3.2 µM; in assay [4] it was 3.2 µM; in assay [5], 1.7 µM. In assay [6], this compound returned an IC50 of 1.1 µM.

Take `CN(C)CCCn1ccc2cc(Cc3cccc(C(=O)Nc4ccc5c(c4)OCO5)c3)ccc21` [Compound 4047, N-(benzo[d][1,3]dioxol-5-yl)-3-((1-(3-(dimethylamino)propyl)-1H-indol-5-yl)methyl)benzamide]: the IC50 came to 2.5 µM with SK-Mel-28 melanoma cells; 3.4 µM in assay [1]; 3 µM in assay [2]; 3 µM in assay [3]; 3.1 µM in assay [4]; 3 µM in assay [5]. In assay [6], this compound gave an IC50 of 3.1 µM.

In the case of `CN(C)CCCn1ccc2cc(Cc3cccc(C(=O)Nc4cccc(F)c4)c3)ccc21` [Compound 4048, 3-((1-(3-(dimethylamino)propyl)-1H-indol-5-yl)methyl)-N-(3-fluorophenyl)benzamide], the IC50 in the assay with SK-Mel-28 melanoma cells came out at 3.1 µM; in assay [1], 3.3 µM; in assay [2] it was 3.2 µM; in assay [3], 6.9 µM; in assay [4], 3.9 µM; in assay [5], 3 µM. Also, the IC50 in assay [6] is 3.8 µM.

With `COc1cccc(NC(=O)c2cccc(Cc3ccc4c(ccn4CCCN(C)C)c3)c2)c1` [Compound 4049, 3-((1-(3-(dimethylamino)propyl)-1H-indol-5-yl)methyl)-N-(3-methoxyphenyl)benzamide], the IC50 was 3.1 µM in the assay with SK-Mel-28 melanoma cells; 3.3 µM in assay [1]; 3.4 µM in assay [2]; 3.2 µM in assay [3]; 3.3 µM in assay [4]; 3 µM in assay [5]. In assay [6], this compound gave an IC50 of 3.4 µM.

On to `Cc1c(C)n(CCCN(C)C)c2ccc(Cc3cccc(C(=O)Nc4ccc(F)cc4)c3)cc12` [Compound 4050], for which the IC50 amounted to 2.6 µM in the assay with SK-Mel-28 melanoma cells; 4.3 µM in assay [1]; 3.7 µM in assay [2]; 4.2 µM in assay [3]; 4 µM in assay [4]; 3.1 µM in assay [5]. Besides, in assay [6], the IC50 came to 4.2 µM.

Consider `COc1ccc(NC(=O)c2cccc(Cc3ccc4c(c3)c(C)c(C)n4CCCN(C)C)c2)cc1` [Compound 4051], for which the IC50 in the assay on SK-Mel-28 melanoma cells was 3.4 µM; in assay [1] it was 4.9 µM; in assay [2] it was 4.5 µM; in assay [3], 16.1 µM; in assay [4] it was 4.3 µM; in assay [5], 4.1 µM. Besides, in assay [6], the IC50 turned out to be 17.3 µM.

Take `Cc1c(C)n(CCCN(C)C)c2ccc(Cc3cccc(C(=O)Nc4ccc5c(c4)OCO5)c3)cc12` [Compound 4052, N-(benzo[d][1,3]dioxol-5-yl)-3-((1-(3-(dimethylamino)propyl)-2,3-dimethyl-1H-indol-5-yl)methyl)benzamide]: the IC50 was 6.2 µM with SK-Mel-28 melanoma cells; 13.8 µM in assay [1]; 30 µM in assay [2]; 27.1 µM in assay [3]; 31.9 µM in assay [4]; 8 µM in assay [5]. Also, in assay [6], the IC50 was found to be 11.1 µM.

Regarding `Cc1c(C)n(CCCN(C)C)c2ccc(Cc3cccc(C(=O)Nc4cccc(F)c4)c3)cc12` [Compound 4053], the IC50 in the assay with SK-Mel-28 melanoma cells is 2.5 µM; in assay [1], 4.3 µM; in assay [2], 2.5 µM; in assay [3], 4.6 µM; in assay [4], 3.8 µM; in assay [5] it was 2 µM. This compound also came in with an IC50 in assay [6] of 3.7 µM.

Turning to `COc1cccc(NC(=O)c2cccc(Cc3ccc4c(c3)c(C)c(C)n4CCCN(C)C)c2)c1` [Compound 4054], the IC50 worked out at 4.1 µM with SK-Mel-28 melanoma cells; 4.5 µM in assay [1]; 4.6 µM in assay [2]; 5.1 µM in assay [3]; 4.5 µM in assay [4]; 3.9 µM in assay [5]. This compound also registered an IC50 in assay [6] of 3.9 µM.

As to `Cc1c(C)n(CCCN(C)C)c2ccc(Cc3cccc(C(=O)Nc4ccccc4)c3)cc12` [Compound 4055], the IC50 was 5.1 µM in the assay on SK-Mel-28 melanoma cells; 4.5 µM in assay [1]; 4.7 µM in assay [2]; 6.8 µM in assay [3]; 4.6 µM in assay [4]; 4.7 µM in assay [5]. In assay [6], this compound showed an IC50 of 7.9 µM.

For `CN(C)CCCn1ccc2cc(Oc3cccc(C(=O)Nc4ccc(F)cc4)c3)ccc21` [Compound 4056, 3-((1-(3-(dimethylamino)propyl)-1H-indol-5-yl)oxy)-N-(4-fluorophenyl)benzamide], the IC50 in the assay on SK-Mel-28 melanoma cells amounted to 3.4 µM; in assay [1] it was 4.3 µM; in assay [2], 3 µM; in assay [3], 4.7 µM; in assay [4], 3.4 µM; in assay [5] it was 4 µM. Moreover, the IC50 in assay [6] was determined as 7 µM.

On to `COc1ccc(NC(=O)c2cccc(Oc3ccc4c(ccn4CCCN(C)C)c3)c2)cc1` [Compound 4057, 3-((1-(3-(dimethylamino)propyl)-1H-indol-5-yl)oxy)-N-(4-methoxyphenyl)benzamide], for which the IC50 with SK-Mel-28 melanoma cells came out at 2.7 µM; in assay [1] it was 6.4 µM; in assay [2], 3 µM; in assay [3] it was 10.3 µM; in assay [4] it was 4.9 µM; in assay [5], 4.4 µM. For the same compound, in assay [6], the IC50 turned out to be 8.7 µM.

As to `CN(C)CCCn1ccc2cc(Oc3cccc(C(=O)Nc4ccc5c(c4)OCO5)c3)ccc21` [Compound 4058, N-(benzo[d][1,3]dioxol-5-yl)-3-((1-(3-(dimethylamino)propyl)-1H-indol-5-yl)oxy)benzamide], the IC50 with SK-Mel-28 melanoma cells worked out at 2.7 µM; in assay [1], 4.7 µM; in assay [2], 3.8 µM; in assay [3] it was 9.7 µM; in assay [4], 3.4 µM; in assay [5] it was 4.7 µM. In assay [6], the IC50 worked out at 7.2 µM.

Take `CN(C)CCCn1ccc2cc(Oc3cccc(C(=O)Nc4cccc(F)c4)c3)ccc21` [Compound 4059, 3-((1-(3-(dimethylamino)propyl)-1H-indol-5-yl)oxy)-N-(3-fluorophenyl)benzamide]: the IC50 was 15.5 µM in the assay on SK-Mel-28 melanoma cells; more than 30 µM in assay [1]; 13.2 µM in assay [2]; more than 30 µM in assay [3]; 11.3 µM in assay [4]; 13.4 µM in assay [5]. The compound also displayed an IC50 in assay [6] of more than 30 µM.

Consider `COc1cccc(NC(=O)c2cccc(Oc3ccc4c(ccn4CCCN(C)C)c3)c2)c1` [Compound 4060], for which the IC50 in the assay with SK-Mel-28 melanoma cells is 2.8 µM; in assay [1], 4 µM; in assay [2], 2.8 µM; in assay [3] it was 4 µM; in assay [4] it was 3.6 µM; in assay [5] it was 4.2 µM. The same compound had an IC50 in assay [6] of 5 µM.

These data come from patent US20170166555A1, “FUNCTIONALISED AND SUBSTITUTED INDOLES AS ANTI-CANCER AGENTS” (Novogen Limited, priority 2013, published 2017).
